Results taken from US10689415B2, “Conjugates of RGD peptides and (bacterio)chlorophyll photosensitizers” (YEDA RESEARCH AND DEVELOPMENT COMPANY LTD., priority 2006, dated 2020).
Where no end group is shown, it is not given here.

Experiments:
H5V endothelial cells [1] = assay: Phototoxicity assay (Neutral Red cell viability after illumination); type: cell-based, mouse; conditions: for LD50: Table 3: 10 μM BSA in medium (90 min, 37° C.)
Experimental: The light source for in vitro studies was home-built 100-W halogen lamp equipped with a high-pass filter (>650 nm, Safelight filter 1A Eastman Kodak Co., Rochester, N.Y., USA) and a 4-cm water filter. The lamp was used to illuminate (20 mW/cm^2/10 min (12 J/cm^2)) the culture plates from the bottom at room temperature in a dark room.
To determine the pigment photodynamic efficacy in vitro under standard conditions, cells were cultured in 96-well plates and preincubated for 15 or 90 min at 37° C. or 4° C., according to the indicated experiment protocol, with 0-25 μM conjugated or non-conjugated photosensitizer in different media conditions (culture medium DMEM/F12; 10% FCS in medium or 10 μM BSA in medium) in the absence or presence of excess free peptide (100 fold up to 1 mM). The cells were washed and illuminated (20 mW/cm^2 for 10 min). Plates were placed back in the culture incubator for 24 h. Cell survival was determined using Neutral Red cell viability assay. Cell survival was calculated as the percent of the dye accumulated in the untreated controls. […] Three kinds of controls were used: (i) light control: cells illuminated in the absence of pigments; (ii) dark control: cells treated with pigments but kept in the dark; and (iii) untreated cells that were kept in the dark.
Following photosensitization and a 24-h incubation period (37° C.), cell survival was determined by Neutral Red (Fluka Chemie, Buchs, Switzerland) accumulation. After subtraction of assay blanks, net optical density (570 nm) was computed as the average value of triplicates determinations. Cell survival was calculated as the percent of the dye accumulated in the untreated controls.
H5V cells were incubated for 90 min at 37° C. with 0-25 μM of conjugate 23 or compound 10 in different media conditions, illuminated and their survival was determined using Neutral Red viability assay as described in Materials and Methods.
Targeted phototoxicity is defined as one inhibited by the free ligand. Thus, further experiments attempted to block phototoxicity by administration of the free cycloRGDfK, which competes for the cellular binding of conjugate 23. H5V cells were incubated for 90 min at 37° C. with 0-25 μM of compound 10 or conjugate 23 in different media (10% FCS in medium or 10 μM BSA in medium) in the absence or presence of free excess cycloRGDfK (100-fold up to 1 mM). The cells were illuminated and cell survival was determined using Neutral Red viability assay, as described above.
In order to test the endocytosis theory and since the endocytic process is time- and temperature-dependent, H5V cells were incubated at 37° C. and 4° C. for 15 min with 0-20 μM of conjugate 23 in medium containing 10% FCS, in the presence or absence of excess cycloRGDfK (100-fold up to 1 mM). Cells were illuminated and their survival was determined as described above.
The phototoxicity of conjugate 24 was determined by monitoring the survival of cultured H5V endothelial cells following PDT. H5V cells were incubated for 2 hours at 37° C. with 0-25 μM conjugate 24 in culture medium DMEM/F12 with 10% FCS. The cells were illuminated and their survival was determined as described above.
Cells were incubated for 90 min at 37° C. in the presence of 0-20 μM conjugate 11 or compound 8 in 10 μM BSA in medium, illuminated and their survival was determined as described above.

[2] = Solubilization for in vitro experiments (water solubility); type: physicochemical
Experimental: Compound 24 was dissolved in 100% DMSO before use and diluted in saline to a final DMSO concentration of 5% v/v.

CT26luc colon cancer = assay: In vivo PDT (VTP) of CT26luc colon cancer; set-up: species or system CD-1 nude male mice; conditions: i.v. injected and illuminated after 8 hours
Experimental: CD-1 nude male mice bearing the different tumor xenografts were anesthetized and 24 (5-24 mg/kg body weight) or 8 (9 mg/kg body weight) were i.v. injected via the tail vein. The tumors were trans-cutaneously illuminated after 3.5, 6, 8, 12 and 24 hours for 5-30 min at light doses of 30-360 J/cm^2. Intensity of illumination: 100-200 mW/cm^2. After treatment, the mice were returned to the cage. The mice were considered cured if tumor free for 90 days after treatment. Mice were euthanized when the tumor diameter reached 15 mm. […] (5) Mixture of 8 and cycloRGDfK: the mice were i.v. injected with mixture of 8 with cycloRGDfK and illuminated after indicated time point. (6) cycloRGDfK alone: the mice were i.v. injected with cycloRGDfK and illuminated after indicated time point. Images were taken at indicated time post PDT.
FIGS. 32A-32F show the therapeutic results of applying 15 mg/kg, 10 min illumination (60 J/cm^2), 8 hours post injection of conjugate 24 to mice bearing CT26luc tumors (bolded protocol in Table 5). 32A—conjugate 24 was i.v. injected 15 mg/kg, 10 min illumination (60 J/cm^2) 8 hours post injection; 32B—overlaid images taken after i.p. injection of luciferin to the mouse described in 32A, using the IVIS system. The first image is black and white, which gives the photograph of the animal. The second image is color overlay of the emitted photon data. […]

rat C6 glioma xenografts = assay: Whole-body NIR fluorescence imaging, rat C6 glioma xenografts; type: in vivo, CD-1 nude male mice; conditions: 200 nmol dose, 4 to 72 hours post injection
Description: The in Vivo Optical Imaging System (IVISR100/XFO-12, Xenogen Corp., Alameda, Calif., USA) was used to acquire fluorescent images of the RFP-expressing tumors, as well as photosensitizers associated with tissues and organs after their intravenous (i.v.) infusion to the tested animals. The field-of-view was 15 cm. Two images were taken; the first image is black and white, providing a photograph of the animal. The second image is a colored overlay of the emitted photon data, in the present case the NIR fluorescence of the compound (680-720 nm excitation filter and a 780-810 nm emission filter) or bioluminescence (560 nm) as described below. […]
Dynamic fluorescence images were acquired immediately following the injection of a conjugate of the invention and continued for approximately 2 hours. Fluorescence images were also obtained under isoflurane anesthesia for up to 72 hr after initial injection of the conjugate. […]
Dynamic fluorescence images were obtained from CD-1 nude male mice bearing rat C6 glioma xenografts. The fluorescence images were acquired using IVIS system as described in Materials and Methods. […]
Specific binding is defined as one inhibited by the unconjugated sensitizer. […] Fluorescence images of the blocked receptor xenografts with the same exposure time are illustrated in FIG. 19 on the same linear color scale to allow for a qualitative comparison. […]

[3] = tested on: tumor grafts of mouse CT26luc colon carcinoma; assay: Biodistribution (Pd by ICP-MS) in mice with CT26luc colon carcinoma grafts; type: in vivo, CD1 nude male mice; conditions: 8 hours post injection
Experimental: Anesthetized mice were i.v. injected (tail vein) with the different photosensitizer (pigment) conjugates (control group: untreated). The mice were sacrificed at indicated time points and samples of the indicated organs and tissues (blood, tumor, intestine, liver, spleen, kidneys, testies, heart, lung, brain, skin, muscle and fat) were placed in pre-weighted vials and immediately frozen and stored at −20° in the dark until analyzed. Three methods were used for sample preparation: (1) Each sample was thawed and homogenized in DDW (1:10 w/v). Aliquots of the homogenate (500 μl) were lyophilized in Eppendorf test tubes. […] Pd concentrations were determined by ICP-MS. According to method (3), the supernatants were diluted in methanol by a factor of two and the drug concentration was determined by fluorescence measurements (Varian-Cary Eclipse spectrofluorimeter, Palo Alto, Calif., USA) at 750 nm (peak values). Drug concentrations were interpolated from a fluorescence calibration curve, based on predetermined drug concentrations using absorption spectroscopy. […]
The conjugates of the invention are potential drug carriers. […] In order to quantify the conjugate levels in target tissues, Ion Coupled Plasma-Mass Spectroscopy (ICP-MS) was used for tracing the central M atom (e.g., Pd, Cu) in the target organ. […]

[4] = molecular target: isolated αvβ3 integrin receptor (Homo sapiens, UniProt P05106+P06756); assay: Solid-phase receptor assay, Eu-RGD-4C binding competed by RGD-4C; conditions: 100 μM of RGD-4C; highest attenuation
isolated αvβ3 integrin receptor, sequence (P06756 31-889 limits assumed): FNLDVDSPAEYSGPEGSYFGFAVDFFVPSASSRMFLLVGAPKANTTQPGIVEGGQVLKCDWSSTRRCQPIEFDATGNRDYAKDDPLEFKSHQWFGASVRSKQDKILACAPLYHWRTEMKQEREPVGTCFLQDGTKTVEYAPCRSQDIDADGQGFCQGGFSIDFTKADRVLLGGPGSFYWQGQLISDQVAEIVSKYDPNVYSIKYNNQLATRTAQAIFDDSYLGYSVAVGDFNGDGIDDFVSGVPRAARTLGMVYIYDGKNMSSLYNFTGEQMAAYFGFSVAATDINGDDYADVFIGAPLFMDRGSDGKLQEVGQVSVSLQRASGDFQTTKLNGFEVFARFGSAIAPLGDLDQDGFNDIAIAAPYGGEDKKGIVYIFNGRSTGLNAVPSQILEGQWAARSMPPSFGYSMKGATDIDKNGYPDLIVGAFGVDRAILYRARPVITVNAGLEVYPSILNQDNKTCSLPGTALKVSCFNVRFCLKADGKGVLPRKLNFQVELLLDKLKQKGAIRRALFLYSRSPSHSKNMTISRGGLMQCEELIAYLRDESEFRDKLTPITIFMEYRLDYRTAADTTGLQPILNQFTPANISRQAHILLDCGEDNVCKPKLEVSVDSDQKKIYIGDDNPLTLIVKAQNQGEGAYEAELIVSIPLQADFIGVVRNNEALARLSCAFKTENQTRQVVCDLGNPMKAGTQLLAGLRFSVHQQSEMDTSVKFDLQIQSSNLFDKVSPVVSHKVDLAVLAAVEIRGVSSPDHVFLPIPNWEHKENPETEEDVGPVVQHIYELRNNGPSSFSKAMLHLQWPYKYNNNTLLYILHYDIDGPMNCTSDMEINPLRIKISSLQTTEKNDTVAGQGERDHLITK
isolated αvβ3 integrin receptor, sequence (P06756 891-1048 limits assumed): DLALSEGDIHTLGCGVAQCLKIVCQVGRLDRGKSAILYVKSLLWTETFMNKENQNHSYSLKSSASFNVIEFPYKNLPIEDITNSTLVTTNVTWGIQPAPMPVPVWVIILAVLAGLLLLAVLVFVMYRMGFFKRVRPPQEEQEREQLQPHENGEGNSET
isolated αvβ3 integrin receptor, sequence (P05106 27-788): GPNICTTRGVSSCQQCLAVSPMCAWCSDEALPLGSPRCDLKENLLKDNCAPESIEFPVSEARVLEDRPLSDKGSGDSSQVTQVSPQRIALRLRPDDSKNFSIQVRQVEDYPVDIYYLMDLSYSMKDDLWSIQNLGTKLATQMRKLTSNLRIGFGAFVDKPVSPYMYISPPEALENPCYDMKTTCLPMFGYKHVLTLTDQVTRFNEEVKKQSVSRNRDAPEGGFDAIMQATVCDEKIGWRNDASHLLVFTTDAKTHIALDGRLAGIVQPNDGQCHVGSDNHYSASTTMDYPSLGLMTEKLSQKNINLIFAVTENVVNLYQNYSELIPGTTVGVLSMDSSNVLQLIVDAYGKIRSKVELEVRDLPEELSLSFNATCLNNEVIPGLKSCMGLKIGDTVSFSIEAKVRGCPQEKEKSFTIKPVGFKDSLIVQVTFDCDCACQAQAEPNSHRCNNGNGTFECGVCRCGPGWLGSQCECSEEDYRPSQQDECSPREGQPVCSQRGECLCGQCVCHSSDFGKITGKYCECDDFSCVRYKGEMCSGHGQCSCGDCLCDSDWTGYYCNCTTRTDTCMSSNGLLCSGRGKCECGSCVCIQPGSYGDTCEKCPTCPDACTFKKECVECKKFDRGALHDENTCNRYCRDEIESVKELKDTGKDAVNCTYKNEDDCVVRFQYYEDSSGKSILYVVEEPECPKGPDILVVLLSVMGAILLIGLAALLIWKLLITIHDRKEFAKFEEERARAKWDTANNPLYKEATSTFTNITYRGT
Experimental: The binding of Eu-RGD-4C to isolated αvβ3 integrin receptor was determined using time-resolved fluorometry. Each well of a microtiter plate (Nunc MaxiSorb) was coated with 50 μl of purified receptor (1 μg/ml in PBS) by shaking at 4° C. overnight. The receptor solution was then removed, and each well was blocked with 200 μl of milk (1% w/v milk powder in PBS, 1 hr, room temperature). The plate was then washed with 200 μl of PBS once, and incubated for 1 h at 37° C. with increasing concentrations of RGD-4C in the presence of constant amount of Eu-RGD-4C (10 million F.U./well). The ligand/competitor solution was removed and each well was washed three times with 200 μl PBS. Enhancement solution was added (200 μl/well) to release the chelated Eu. […] Under these experimental conditions, 100 μM of RGD-4C reduced by 50% Eu-RGD-4C binding to the isolated receptor. This value represents the highest attenuation of the Eu-RGD-4C binding, even at RGD-4C highest concentrations.

HUVEC = assay: Cell detachment (rounding) assay, HUVEC; type: cell-based, human; conditions: 100 μM RGD-4C; recovery after 24 h in fresh medium
Experimental: (§1) H5V cells were cultured as monolayers in 3-cm dish for 24-48 h, and further incubated for 1 h with 100 μM RGD-4C at 4° C. or 37° C. The cells were washed once and re-incubated for three hours with fresh culture medium at 37° C. In the same fashion, HUVEC were cultured as monolayers in 6-well plate pre-coated with gelatin for 48 h, and incubated for 1 h with 100 μM RGD-4C at 37° C. The cells were washed once and re-incubated for 24 h with fresh culture medium at 37° C. The morphological changes of the cells were documented using light microscopy.

H5V endothelial cells [5] = assay: Cell detachment (rounding) assay, H5V; type: cell-based, mouse
Experimental: as §1
The biological effect of RGD-4C binding was characterized in H5V cells and Human Umbilical Vein Endothelial Cells (HUVEC) using the cell-rounding assay described in Materials and Methods. The morphological changes of the cells were documented using light microscopy. […] This effect was reversible as the cells recovered following 3 h re-incubation with fresh culture medium (8% rounded cells in dishes with previous presence of RGD-4C versus 6% in the absence of RGD-4C).

αvβ5 and αvβ3 integrins = conditions: read-out: affinity constant; reports by others; cited from earlier work

With “Palladium 3^1-oxo-15-methoxycarbonylmethyl-Rhodobacteriochlorin 13^1-(2-sulfoethyl)amide potassium salt [Compound 8, reference compound]” the phototoxic effects (H5V endothelial cells [1]; 90 min, 37° C., 10 μM BSA in medium, 0-20 μM) was “light- and drug concentration-dependent”, the LD50 (H5V endothelial cells [1]) was 1.8 to 2 µM and the LD50 (H5V endothelial cells [1]; with free peptide excess (RGD-4C 1 mM)) was 2 µM. The water solubility [2] was “Water-soluble”, the “PDT effect of controls” value (CT26luc colon cancer) was “no PDT effect” and the whole-body fluorescence distribution (rat C6 glioma xenografts) was “no specific signal could be seen”.

In the case of “Palladium 3^1-oxo-15-methoxycarbonylmethyl-Rhodobacteriochlorin 13^1-(2-sulfoethyl)amide-17^3-(cycloRADfK)amide potassium salt [Conjugate 42]”, the “concentrations in the tumor tissue and blood” value [3] is reported as “quite the same”.

With “the cyclic nonapeptide CDCRGDCFC-NH2 (disulfide (positions not given here)) [RGD-4C]” the “reduction of Eu-RGD-4C binding to the isolated receptor” value [4] was 50%, the water solubility [2] was “Water insoluble” and the HUVEC detachment (HUVEC) was “induced HUVEC detachment from the dish in a reversible manner”. For the same substance, the “rounded cells (cell detachment from the dish)” value (H5V endothelial cells [5]; 100 μM RGD-4C, n=200) was 99%, the “rounded cells after 3 h re-incubation with fresh culture medium” value (H5V endothelial cells [5]; previous presence of RGD-4C, 37° C.) was 8% and the Kd (αvβ5 and αvβ3 integrins) was roughly 100 nM.
